# Reference: US11807906B2, “Peroxisome biomarkers in HIV disease progression and peroxisome activating drugs for HIV treatment” (priority 2017, dated 2023)
# “Also recorded” adds a separate entry of the source.
# What was measured:
# peroxisomal protein PEX7 = test: PEX7 immunoblot in niclosamide-pretreated HIV-infected HeLa CD4+ cells; type: cell-based, human; settings: 48 hrs, relative to DMSO
# Procedure: (§1) HeLa CD4+ cells were pretreated with the indicated concentrations of the peroxisome proliferator, niclosamide for 24 hrs or DMSO alone (vehicle control). Cells were then infected with HIV, MOI=0.5) for 48 hrs after which levels of the viral protein p24 and peroxisomal protein were measured by immunoblotting. Actin served as loading control.
# HIV = HIV p24 ELISA in niclosamide-pretreated HeLa CD4+ cells; type: cell-based; settings: HeLa CD4+ cells pretreated 24 hrs, HIV MOI=0.5, 48 hrs, vs DMSO, FIG. 17
# Procedure: HeLa CD4+ cells were pretreated with the indicated concentrations of the peroxisome proliferator, niclosamide for 24 hrs or DMSO alone (vehicle control). Cells were then infected with HIV, MOI=0.5) for 48 hrs after which levels of the viral protein p24 were measured by ELISA.
# [1] = system: niclosamide-treated cells; test: Relative cell viability by ATP levels in cell lysates; type: cell-based; settings: below 1 micromolar, 72 hours, vs DMSO, FIG. 20
# Procedure: Cells treated with niclosamide or DMSO were harvested after 72 hours. Relative cell viability was determined by measuring ATP levels in the cell lysates.
# HIV p24 protein = test: HIV p24 immunoblot in niclosamide-pretreated HeLa CD4+ cells; type: cell-based; settings: HeLa CD4+ cells pretreated 24 hrs, HIV MOI=0.5, 48 hrs, relative to DMSO, FIG. 18/19
# Procedure: as §1
compound,measurement,setting,value
"O=C(Nc1ccc([N+](=O)[O-])cc1Cl)c1cc(Cl)ccc1O [niclosamide, 5-chloro-N-(2-chloro-4-nitrophenyl)-2-hydroxybenzamide]",PEX7 protein level by immunoblotting,peroxisomal protein PEX7; FIG. 19,increases expression
same,PEX7 protein level by immunoblotting,"peroxisomal protein PEX7; FIG. 19, listed as Niclosamide",increased expression
same,HIV replication (levels of viral protein p24 by ELISA),HIV,potently and significantly inhibits HIV replication
same,HIV replication (levels of viral protein p24 by ELISA),HIV; listed as Niclosamide,significantly inhibited HIV replication
same,"cytotoxicity (relative cell viability, ATP levels)",[1],not cytotoxic
same,HIV p24 protein level by immunoblotting,HIV p24 protein,inhibits expression; also recorded: inhibits HIV replication
same,HIV p24 protein level by immunoblotting,HIV p24 protein; listed as Niclosamide,inhibited expression; also recorded: inhibited HIV replication
